Where two headings read alike, the source gives them in different places.
How the values were obtained:
[1] = test system: Cabbage Looper (Trichoplusia ni) ("CL"), second instar larvae; assay: Bioassay on cabbage looper (CL), 128-well diet tray assay; type: in vivo; details: for CL rating: C = not tested, D = no activity noticed
Summary of the method: (§1)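 Mortality (%) is scored well by well after five to seven days at 25° C. on a 14:10 light:dark regime. The value given is the mean of eight wells.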

[2] = test system: Beet Armyworm (Spodoptera exigua) ("BAW"), second instar larvae; assay: Bioassay on beet armyworm (BAW), 128-well diet tray assay; type: in vivo; details: for pest or weed control at 50 µg/cm2: Spodoptera exigua; for BAW rating: C = not tested, D = no activity noticed
Summary of the method: as §1

[3] = Trichoplusia ni, read-out: CL rating
[4] = Trichoplusia ni, read-out: CL (Biological Results, rating)
[5] = read-out: BAW (Biological Results, rating)

Compound | pest or weed control at 50 µg/cm2 [1, 3] | pest or weed control at 50 µg/cm2 ([2]; read-out: BAW rating) | pest or weed control at 50 µg/cm2 [1, 4] | pest or weed control at 50 µg/cm2 [2, 5] | also measured
COCc1ccc(C)cc1N1C(=O)CS/C1=N\C(=O)Nc1ccc(-c2nnc(-c3ccc(OC(F)(F)F)cc3)o2)cc1F [Compound J609, (Z)-1-(2-Fluoro-4-(5-(4-(trifluoromethoxy)phenyl)-1,3,4-oxadiazol-2-yl)phenyl)-3-(3-(2-(methoxymethyl)-5-methylphenyl)-4-oxothiazolidin-2-ylidene)urea] | 50 to 100% | 50 to 100% | – | – | –
O=C(/N=C1\SCC(=O)N1c1ccc(Cl)cc1COCc1ccccc1)Nc1ccc(-c2ncn(-c3ccc(OC(F)(F)F)cc3)n2)cc1F [Compound J636, (Z)-1-(3-(2-((Benzyloxy)methyl)-4-chlorophenyl)-4-oxothiazolidin-2-ylidene)-3-(2-fluoro-4-(1-(4-(trifluoromethoxy)phenyl)-1H-1,2,4-triazol-3-yl)phenyl)urea] | 0 to 50% | 50 to 100% | – | – | –
Cc1ccc(C(C)C)c(N2C(=O)CS/C2=N\C(=O)Nc2ccc(-c3ncn(-c4ccc(C(F)(F)F)cn4)n3)cc2C)c1 [Compound J284, (Z)-1-(3-(2-Isopropyl-5-methylphenyl)-4-oxothiazolidin-2-ylidene)-3-(2-methyl-4-(1-(5-(trifluoromethyl)pyridin-2-yl)-1H-1,2,4-triazol-3-yl)phenyl)urea] | – | – | 50 to 100% | 50 to 100% | –
Cc1ccc(COCC(F)(F)F)c(N2C(=O)CS/C2=N\C(=O)Nc2ccc(-c3ncn(-c4ccc(C(F)(F)F)cc4)n3)cc2F)c1C [Compound J680] | – | – | – | – | CL rating ([1]; Table ABC, species CL): A (50-100); BAW rating ([2]; Table ABC, species BAW): A (50-100)
CCOCc1ccc(C)cc1N1C(=O)CS/C1=N\C(=O)Nc1ccc(-c2ncn(-c3cccc(OC(F)(F)F)c3)n2)cc1F [Compound J711] | – | – | – | – | CL rating ([1]; Table ABC, species CL): A (50-100); BAW rating ([2]; Table ABC, species BAW): A (50-100)
CC(C)c1ccc(C(C)C)c(N2C(=O)CS/C2=N\C(=O)Nc2ccc(-c3ncn(-c4ccc(OC(F)(F)F)cc4)n3)cc2F)c1 [Compound J164, (Z)-1-(3-(2,5-Diisopropylphenyl)-4-oxothiazolidin-2-ylidene)-3-(2-fluoro-4-(1-(4-(trifluoromethoxy)phenyl)-1H-1,2,4-triazol-3-yl)phenyl)urea] | – | – | 50 to 100% | 50 to 100% | –
Cc1ccc(COCC(F)(F)F)c(N2C(=O)CS/C2=N\C(=O)Nc2ccc(-c3ncn(-c4ccc(F)cc4)n3)cc2F)c1 [Compound J782, (Z)-1-(2-Fluoro-4-(1-(4-fluorophenyl)-1H-1,2,4-triazol-3-yl)phenyl)-3-(3-(5-methyl-2-((2,2,2-trifluoroethoxy)methyl)phenyl)-4-oxothiazolidin-2-ylidene)urea] | 50 to 100% | 50 to 100% | – | – | –
Cc1cc(C)c(C)c(N2C(=O)CS/C2=N\C(=O)Nc2ccc(-c3ncn(-c4ccc(OC(F)(F)F)cc4)n3)cc2F)c1 [Compound J797, (Z)-1-(2-Fluoro-4-(1-(4-(trifluoromethoxy)phenyl)-1H-1,2,4-triazol-3-yl)phenyl)-3-(4-oxo-3-(2,3,5-trimethylphenyl)thiazolidin-2-ylidene)urea] | – | – | – | – | mortality at 50 µg/cm2 ([1]; Trichoplusia ni, Table ABC, species CL, 128-well diet tray assay, second instar larvae, read-out: CL rating (% control or mortality class)): 50 to 100%; BAW rating (% control or mortality class) ([2]; Table ABC, species BAW, 128-well diet tray assay, second instar larvae): A (50-100)
CCCc1ccc(C)cc1N1C(=O)CS/C1=N\C(=O)Nc1ccc(-c2cn(-c3ccc(S(F)(F)(F)(F)F)cc3)cn2)cc1F [Compound J590, (Z)-1-(2-Fluoro-4-(1-(4-(pentafluoro-λ^6-sulfaneyl)phenyl)-1H-imidazol-4-yl)phenyl)-3-(3-(5-methyl-2-propylphenyl)-4-oxothiazolidin-2-ylidene)urea] | 50 to 100% | 50 to 100% | – | – | –
CCCc1ccc(C)cc1N1C(=O)CS/C1=N\C(=O)Nc1ccc(-c2ncn(-c3ccc(N(C(=O)OC)C(F)(F)F)cc3)n2)cc1F [Compound J783, Methyl (Z)-(4-(3-(3-fluoro-4-(3-(3-(5-methyl-2-propylphenyl)-4-oxothiazolidin-2-ylidene)ureido)phenyl)-1H-1,2,4-triazol-1-yl)phenyl)(trifluoromethyl)carbamate] | 50 to 100% | 50 to 100% | – | – | –
Cc1ccc(OCCC(F)(F)F)c(N2C(=O)CS/C2=N\C(=O)Nc2ccc(-c3ncn(-c4ccc(C(F)(F)F)cn4)n3)cc2F)c1 [Compound J307, (Z)-1-(2-Fluoro-4-(1-(5-(trifluoromethyl)pyridin-2-yl)-1H-1,2,4-triazol-3-yl)phenyl)-3-(3-(5-methyl-2-(3,3,3-trifluoropropoxy)phenyl)-4-oxothiazolidin-2-ylidene)urea] | – | – | 50 to 100% | 50 to 100% | –
CC(C)c1ccc(N(C)C)cc1N1C(=O)CS/C1=N\C(=O)Nc1ccc(-c2ncn(-c3ccc(OC(F)(F)F)cn3)n2)cc1F [Compound J238, (Z)-1-(3-(5-(Dimethylamino)-2-isopropylphenyl)-4-oxothiazolidin-2-ylidene)-3-(2-fluoro-4-(1-(5-(trifluoromethoxy)pyridin-2-yl)-1H-1,2,4-triazol-3-yl)phenyl)urea] | – | – | 50 to 100% | 50 to 100% | –
Cc1ccc(OCCC(F)(F)F)c(N2C(=O)CS/C2=N\C(=O)Nc2ccc(-c3ncn(-c4ccc(OC(F)(F)F)cc4)n3)cc2C#N)c1 [Compound J243, (Z)-1-(2-Cyano-4-(1-(4-(trifluoromethoxy)phenyl)-1H-1,2,4-triazol-3-yl)phenyl)-3-(3-(5-methyl-2-(3,3,3-trifluoropropoxy)phenyl)-4-oxothiazolidin-2-ylidene)urea] | – | – | 50 to 100% | 50 to 100% | –
Cc1ccc(C(C)C)c(N2C(=O)CS/C2=N\C(=O)Nc2ccc(-c3ncn(-c4ccc(OC(F)(F)F)cc4)n3)cc2Cl)c1 [Compound J38, (Z)-1-(2-Chloro-4-(1-(4-(trifluoromethoxy)phenyl)-1H-1,2,4-triazol-3-yl)phenyl)-3-(3-(2-isopropyl-5-methylphenyl)-4-oxothiazolidin-2-ylidene)urea] | – | – | 50 to 100% | 50 to 100% | –
COC(c1ccc(C)cc1N1C(=O)CS/C1=N\C(=O)Nc1ccc(-c2ncn(-c3ccc(C(F)F)cn3)n2)cc1F)C(F)(F)F (stereo not shown) [Compound J353] | – | – | – | – | CL (Biological Results, rating) ([1]; Cabbage Looper (Trichoplusia ni), C = Not Tested): A (50-100); BAW (Biological Results, rating) ([2]; Beet Armyworm (Spodoptera exigua), C = Not Tested): A (50-100)
Cc1cc(-c2cn(-c3ccc(C(F)(F)F)cc3)cn2)ccc1NC(=O)/N=C1\SCC(=O)N1c1cc(N(C)C)ccc1C(C)C [Compound J524, (Z)-1-(3-(5-(Dimethylamino)-2-isopropylphenyl)-4-oxothiazolidin-2-ylidene)-3-(2-methyl-4-(1-(4-(trifluoromethyl)phenyl)-1H-imidazol-4-yl)phenyl)urea] | 50 to 100% | 50 to 100% | – | – | –
Cc1ccc(C(C)C)c(N2C(=O)CS/C2=N\C(=O)Nc2ccc(-c3ncn(-c4ccc(OC(F)(F)C(F)(F)F)cc4)n3)cc2F)c1 [Compound J26, (Z)-1-(2-Fluoro-4-(1-(4-(perfluoroethoxy)phenyl)-1H-1,2,4-triazol-3-yl)phenyl)-3-(3-(2-isopropyl-5-methylphenyl)-4-oxothiazolidin-2-ylidene)urea] | – | – | 50 to 100% | 50 to 100% | –
CN(C)c1ccc(OCC(F)(F)F)c(N2C(=O)CS/C2=N\C(=O)Nc2ccc(-n3cnc(-c4ccc(C(F)(F)F)cc4)n3)cc2F)c1 [Compound J697, (Z)-1-(3-(5-(Dimethylamino)-2-(2,2,2-trifluoroethoxy)phenyl)-4-oxothiazolidin-2-ylidene)-3-(2-fluoro-4-(3-(4-(trifluoromethyl)phenyl)-1H-1,2,4-triazol-1-yl)phenyl)urea] | 50 to 100% | 50 to 100% | – | – | –
Cc1ccc(COCC(F)(F)F)c(N2C(=O)CS/C2=N\C(=O)Nc2ccc(-n3cnc(-c4ccc(C(F)(F)F)cc4)n3)cc2F)c1 [Compound J698, (Z)-1-(2-fluoro-4-(3-(4-(trifluoromethyl)phenyl)-1H-1,2,4-triazol-1-yl)phenyl)-3-(3-(5-methyl-2-((2,2,2-trifluoroethoxy)methyl)phenyl)-4-oxothiazolidin-2-ylidene)urea] | 50 to 100% | 50 to 100% | – | – | –
Cc1ccc(C(C)C)c(N2C(=O)CS/C2=N\C(=O)Nc2ccc(-c3ncn(-c4ccc(OC(F)(F)C(F)(F)F)cc4)n3)cc2C)c1 [Compound J24, (Z)-1-(3-(2-Isopropyl-5-methylphenyl)-4-oxothiazolidin-2-ylidene)-3-(2-methyl-4-(1-(4-(perfluoroethoxy)phenyl)-1H-1,2,4-triazol-3-yl)phenyl)urea] | – | – | 50 to 100% | 50 to 100% | –
Cc1ccc(C(C)C)c(N2C(=O)CS/C2=N\C(=O)Nc2ccc(-c3ncn(-c4ccc(OC(F)(F)F)cc4)n3)cc2C(C)C)c1 [Compound J99, (Z)-1-(2-Isopropyl-4-(1-(4-(trifluoromethoxy)phenyl)-1H-1,2,4-triazol-3-yl)phenyl)-3-(3-(2-isopropyl-5-methylphenyl)-4-oxothiazolidin-2-ylidene)urea] | – | – | 50 to 100% | 50 to 100% | –
CCCNc1ccc(C(C)C)c(N2C(=O)CS/C2=N\C(=O)Nc2ccc(-c3ncn(-c4ccc(OC(F)(F)F)cc4)n3)cc2CC)c1 [Compound J159, (Z)-1-(2-Ethyl-4-(1-(4-(trifluoromethoxy)phenyl)-1H-1,2,4-triazol-3-yl)phenyl)-3-(3-(2-isopropyl-5-(propylamino)phenyl)-4-oxothiazolidin-2-ylidene)urea] | – | – | 50 to 100% | 50 to 100% | –
Cc1ccc(COCCF)c(N2C(=O)CS/C2=N\C(=O)Nc2ccc(-c3ncn(-c4ccc(OC(F)(F)F)cc4)n3)cc2C)c1 [Compound J558] | – | – | – | – | CL rating ([1]; Table ABC, species CL): A (50-100); BAW rating ([2]; Table ABC, species BAW): A (50-100)

— patent US20230077362A1 (CORTEVA AGRISCIENCE LLC, priority 2019, published 2023)
